Results from patent US20030134901A1, “Lipoxin compounds and their use in treating cell proliferative disorders” (priority 1993, published 2003).

Key:
human skin fibroblasts = assay: Fibroblast proliferation, MTT assay; type: cell-based; settings: Homo sapiens, Skin fibroblast; 100 nM, n=3
Text: Human type II epithelial A549 cells from human lung carcinoma and normal human skin fibroblast (breast) were obtained from the American Type Culture Collection (Rockville, Md.). The A549 cell line originated from a human alveolar cell carcinoma and was a useful cell line because it was easily assessable and could be maintained in culture without contaminating tissue macrophages. (Lieber, M., et al (1976) A continuous tumor-cell line from a human lung carcinoma with properties of type II alveolar epithelial cells. Int. J Cancer Fibroblasts were utilized within their limited window of viability and their passage numbers were recorded (results are reported for cells from 3-5 passages). Epithelial A549 cells were seeded into T-75 cm^2 tissue culture flasks and maintained in F-12K medium supplemented with 10% heat-inactivated FBS, penicillin (50 U/mL) and streptomycin (50 (g/mL). Human PMN from healthy donors who had not taken ASA or other medications for at least two weeks were obtained by Ficoll-Hypaque gradient centrifugation and dextran sedimentation, (Böyum A. (1968) Isolation of mononuclear cells and granulocytes from human blood. […] Viability of A549 cells and PMN was determined by their ability to exclude trypan blue and were 95±2 and 97±1%, respectively.
A microculture 3,(4,5-dimethylthiazoyl-2-yl) 2,5 (diphenyl-tetrazolium bromide) (MTT) assay, (Marshall, N. J., et al. (1995) A critical assessment of the use of microculture tetrazolium assays to measure cell growth and function. Growth Regul. 5: 69-84.), was used to examine the actions of LXs and other eicosanoids on cell proliferation. A549 cells and fibroblasts from exponential-phase maintenance cultures were counted and dispensed within replicate 96-well culture plates in 100 μl volumes of medium (˜2000 cells/well). […] Dye solution was aspirated, wells were washed once with HBSS and dye taken up by the cells was extracted in 100 μl of isopropyl alcohol:1 N HCl (96:4, v/v) and quantitated at 570 nm using a microplate reader (Molecular Devices, Menlo Park, Calif.). […]

[1] = system: PLD activity in human PMN; assay: PLD activity (PEt formation) in PMN; type: cell-based; settings: biphasic concentration dependence
Description: PMN, platelet and RBC isolation from peripheral blood. Human PMN were obtained by the modified Böyum method (Böyum, A. (1968) Scan. J. Clin. Lab. Invest. 21:77) from fresh heparinized blood after venipuncture of healthy normal volunteers. Suspensions in PBS were monitored for cell number and viability by their ability to exclude trypan blue both exceeding 98%. Red blood cells were obtained from 10 ml of heparinized blood after three centrifugations in PBS (2,500 rpm, 10 min at 21° C.). Blood drawn in acidic citrate dextrose (9:1, v/v) was used to isolate platelets as previously described (Serhan, C. N. and Sheppard, K.-A. (1990) J. Clin. Invest. 85:772). PLD activity. Human PMN and HL-60 cells (50×10^6 cells/ml) prepared as above were incubated with ^3H-myristic acid or ^3H-palmitic acid (8 μCi/50×10^6 cells) for 40-60 min at 37° C. in PBS. […] Incubations were carried out at 37° C. (10 ×10^6 cells/ml PBS). […] M. et al. (1989) J. Biol. Chem. 264:17069. At indicated times, incubations were stopped by adding 3.5 ml of ice cold CHCl3/MeOH (2/5, v/v) containing 1-^14C-arachidonic acid (5,000 cpm) used here as internal standard to quantitate extraction recoveries. Samples were extracted using a modified Bligh and Dyer extraction as in (Serhan, C. N. and Sheppard, K. -A. (1990) J. Clin. Invest. 85:772). Organic phases, concentrated in 50 μL of CHCl3/MeOH (8/2, v/v), were spotted onto linear […] TLC plates developed with the organic phase of ethyl acetate[…][…] (110/50/20/100, v/v/v/v) for 50 min ([…]. et al.(1989) J. Biol. Chem. 264:17069). […] Regions corresponding to PA, PEt, and internal standards were scraped and quantified by liquid scintillation counting. […] In these experiments, PA was resolved using ethyl acetate[…][…]) as solvent system ([…]. et al. (1989) Anal. […] Impact of IAP and staurosporine on LXA4-induced PLD activity. PLD activity assays, performed as described (vide supra), were preceded by cell exposure to either IAP or staurosporine. […]

## CCCCC[C@H](O)/C=C/C=C\C=C\C=C\[C@@H](O)[C@@H](O)CCCC(=O)O [LXA4, (5S, 6R, 15S)-trihydroxy-7E, 9E, 11Z, 13E-eicosatetraenoic acid]
Human skin fibroblasts
  inhibition at 0.1 µM: 10.7%
[1]
  concentration of second peak of activity, PEt formation: 10^−7 M
